From patent publication US9284297B2, “Halofuginone analogs for inhibition of tRNA synthetases and uses thereof” (President and Fellows of Harvard College, priority 2008, dated 2016)

What was measured:
[1] = tested on: human CD4+ T cells (CD4+ CD45RO+); assay: IL-17 and IFNγ expression by human memory CD4+ T cells co-cultured with monocytes; format: cell-based; details: 100 nM HF; expanded for 6 days
Method: FIG. 5F is a set of FACS analyses of purified primary human memory T cells (CD4^+ CD45RO^+) activated in co-culture with CD14^+ monocytes and treated with DMSO, 100 nM HF or 100 nM MAZ1310. T cells were expanded for 6 days and intracellular cytokine expression was determined following restimulation with PMA plus ionomycin.
In light of reports that IL-17 expression may be differentially regulated in murine versus human T cells (Manel et al., Nat. Immunol. 9:641, 2008; Wilson et al., Nat. Immunol. 8:950, 2007; Acosta-Rodriguez et al., Nat. Immunol. 8:942, 2007), HF modulation of IL-17 expression by human CD4^+ T cells was investigated. […] Therefore, HF selectively limits IL-17 expression in both human and mouse T cells.
Primary murine T and B cells were purified by cell sorting. CD4^+ CD25^− T cells were positively selected using CD4 dynabeads and detachabeads (Dynal, Oslo, Norway) per manufacturers instructions followed by nTreg depletion using a CD25 microbead kit (Miltenyi biotech, Auburn, Calif.). Naïve (CD4^+ CD62Lhi CD44lo Foxp3gfp- or CD4^+ CD62Lhi CD44lo CD25^−) T cells were purified from Foxp3gfp or Foxp3ko mice, respectively, by FACS sorting. […] Resting human CD4^+ T cells were isolated from PBMC of healthy human donors using Dynal CD4 Positive Isolation Kit (Invitrogen, Carlsbad, Calif.) as previously described (Sundrud et al., Blood 106:3440, 2005). […]

[2] = tested on: Differentiation of primary naïve T-cells into Th17 cells; assay: Inhibition of Th17 differentiation of primary naïve T-cells by halofuginone analogs; format: cell-based, murine; parameters: key: “+++” vs. “++” vs. “+” in general denotes ˜4-fold differences in potency; “+++” vs. “++” vs. “+” in general denotes ˜4-fold differences in potency; “+++” vs. “++” vs. “+” in general denotes ˜4-fold differences in potency; “−” denotes no activity at any dose tested, up to 1000× the effective dose of halofuginone; details: T-cell receptor stimulation+IL-6+TGFb
Method: Naïve T-cells were stimulated to differentiate in the presence or absence of 10 nM halofuginone, with 1 mM of the indicated amino acids added to the medium, and stained for Th17 differentiation on day 4. Naïve murine T cells were activated in the presence or absence of TGFβ plus IL-6 as indicated, expanded in for 4 days and restimulated with PMA and ionomycin for intracellular cytokine staining. […] Bars indicate percentage of cells differentiation as Th17 as indicated by IL17 expression.
The effect of different halofuginone and analogs thereof on differentiation of naïve T-cells was assayed as described in legend for FIG. 4 above. Differentiation of primary naïve T-cells into Th17 cells following T-cell receptor stimulation+IL-6+TGFb. “+++” vs. “++” vs. “+” in general denotes ˜4-fold differences in potency. “−” denotes no activity at any dose tested, up to 1000× the effective dose of halofuginone.

[3] = target: T1, prolyl-tRNA synthetase (EPRS) (Oryctolagus cuniculus, UniProt G1T2I4); assay: Incorporation of 14C-labeled proline into tRNA in rabbit reticulocyte lysate; format: biochemical; details: crude in vitro translation system
T1 construct: from tissue; host or cells: rabbit reticulocyte lysate
T1 sequence (G1T2I4 1-1447): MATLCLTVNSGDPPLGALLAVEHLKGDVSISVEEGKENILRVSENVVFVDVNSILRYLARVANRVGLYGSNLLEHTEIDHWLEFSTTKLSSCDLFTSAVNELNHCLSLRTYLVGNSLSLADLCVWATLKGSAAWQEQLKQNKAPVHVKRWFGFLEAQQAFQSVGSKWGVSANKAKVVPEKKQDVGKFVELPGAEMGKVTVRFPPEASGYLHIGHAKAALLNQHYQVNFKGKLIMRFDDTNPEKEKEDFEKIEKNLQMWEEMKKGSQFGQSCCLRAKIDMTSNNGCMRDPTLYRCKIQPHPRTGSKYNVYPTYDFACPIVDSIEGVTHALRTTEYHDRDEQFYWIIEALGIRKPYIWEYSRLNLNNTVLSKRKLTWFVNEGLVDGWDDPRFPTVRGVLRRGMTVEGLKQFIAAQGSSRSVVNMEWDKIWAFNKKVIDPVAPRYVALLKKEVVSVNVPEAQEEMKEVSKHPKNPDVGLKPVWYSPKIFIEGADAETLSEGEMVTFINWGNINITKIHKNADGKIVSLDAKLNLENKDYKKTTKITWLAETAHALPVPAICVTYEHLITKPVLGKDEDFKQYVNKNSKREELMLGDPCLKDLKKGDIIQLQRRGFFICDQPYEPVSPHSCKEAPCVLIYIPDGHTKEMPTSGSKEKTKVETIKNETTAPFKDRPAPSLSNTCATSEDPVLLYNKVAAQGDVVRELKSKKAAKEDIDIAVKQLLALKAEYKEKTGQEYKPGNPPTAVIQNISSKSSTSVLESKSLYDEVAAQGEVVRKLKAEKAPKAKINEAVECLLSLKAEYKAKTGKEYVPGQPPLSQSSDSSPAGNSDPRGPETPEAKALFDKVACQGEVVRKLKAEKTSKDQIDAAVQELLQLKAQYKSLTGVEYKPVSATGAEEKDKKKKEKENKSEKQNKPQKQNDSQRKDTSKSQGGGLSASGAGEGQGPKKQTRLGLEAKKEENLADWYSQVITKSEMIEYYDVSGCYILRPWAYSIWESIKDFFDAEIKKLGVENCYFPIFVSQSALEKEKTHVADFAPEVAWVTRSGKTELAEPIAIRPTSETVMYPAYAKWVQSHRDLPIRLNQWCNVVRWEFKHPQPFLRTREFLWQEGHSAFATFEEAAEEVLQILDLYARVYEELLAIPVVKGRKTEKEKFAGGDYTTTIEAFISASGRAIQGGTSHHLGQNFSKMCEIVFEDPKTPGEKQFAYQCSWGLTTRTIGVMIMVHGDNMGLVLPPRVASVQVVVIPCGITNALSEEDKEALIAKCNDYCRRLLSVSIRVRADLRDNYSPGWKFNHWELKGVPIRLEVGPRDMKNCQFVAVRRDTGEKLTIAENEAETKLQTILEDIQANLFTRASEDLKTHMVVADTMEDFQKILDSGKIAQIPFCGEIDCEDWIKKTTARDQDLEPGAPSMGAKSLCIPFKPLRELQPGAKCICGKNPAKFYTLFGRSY
Method: Total RNA was extracted with acidic phenol-chloroform and tRNA was isolated using miRVANA microRNA isolation kit. Radioisotope incorporation into tRNA was measured in a scintillation counter.

`O=C(CC1NCCCC1O)Cn1cnc2cc(Br)c(Cl)cc2c1=O` (stereo not shown) [Compound 1, 7-bromo-6-chloro-3-[3-(3-hydroxy-2-piperidinyl)-2-oxopropyl]-4(3H)-quinazolinone] was tested, and the “IFNγ expression by human T cells” value [1] was “essentially unaffected”, the “IL-17 expression by human T cells” value [1] was “greatly reduced both the percentage of human T cells expressing IL-17 and the amount of IL-17 produced” and the “Inhibition of Th17 differentiation” value [2] was “+++”. The “inhibition of 14C proline incorporation into tRNA” value [3] was “inhibitor of prolyl-tRNA synthetase (EPRS)”.
